From patent publication US7411090B2, “Process for the recovery of citric acid” (A.E. Staley Manufacturing Company, priority 2003, dated 2008)

Assay: Extraction into non-amine (NA) solvent from solutions containing both glucose and citric acid
Format: physicochemical
Conditions: selectivity decreases with increase in distribution of citric into solvent phase
Excerpt: The citric/glucose selectivity decreases with the increase in the distribution of citric into the solvent phase.

## O=C(O)CC(O)(CC(=O)O)C(=O)O [citric acid]
  citric/glucose selectivity of extraction into the NA solvent: selectively extracted
